Measurements published in patent US8916702B2 (priority 2012, dated 2014).

test system: HCV pseudoparticles (genotype 1a HCV E1 and E2 envelope, H77C isolate); assay: microbe, parasite or virus in culture; type: cell-based; conditions: Hepatitis C virus, Huh-7, 48 h, HCV pseudoparticle infection of Huh7 cells, luciferase 2 days after infection; average of duplicates

SMILES | EC50
COC(=O)[C@H](CCNC(=O)C(=O)NC1CC(C)CC(C)(C)C1)NC(=O)c1ccc(Nc2nc(NC3(c4ccc(Cl)cc4)CC3)nc(OCC(F)(F)F)n2)cc1 (stereo partly shown) [Compound 1107] | 0.46 nM
O=C(NCC[C@H](NC(=O)c1ccc(Nc2nc(NC3(c4ccc(Cl)cc4)CC3)nc(OCC(F)(F)F)n2)cc1)C(=O)O)C(=O)NC1CCCC(O)C1 (stereo partly shown) [Compound 1112] | 1.23 nM
C[C@H]1[C@H]2C[C@@H](C[C@H]1NC(=O)C(=O)NCC[C@H](NC(=O)c1ccc(Nc3nc(NC4(c5ccc(Cl)cc5)CC4)nc(OCC(F)(F)F)n3)cc1)C(=O)O)C2(C)C [Compound 1130] | 0.12 nM
COC(=O)[C@H](CNC(=O)C(=O)NCc1ccc(F)cc1)NC(=O)c1ccc(Nc2nc(NC3(c4ccc(Cl)cc4)CC3)nc(OCC(F)(F)F)n2)cc1 [Compound 1133] | 1.4 nM
COC(=O)[C@H](CNC(=O)C(=O)NCc1c(F)cccc1F)NC(=O)c1ccc(Nc2nc(NC3(c4ccc(Cl)cc4)CC3)nc(OCC(F)(F)F)n2)cc1 [Compound 1135] | 1.92 nM
COC(=O)[C@H](CNC(=O)C(=O)NCc1cc(F)cc(F)c1)NC(=O)c1ccc(Nc2nc(NC3(c4ccc(Cl)cc4)CC3)nc(OCC(F)(F)F)n2)cc1 [Compound 1138] | 0.81 nM
COC(=O)[C@H](CNC(=O)C(=O)NCc1cccc(OC)c1)NC(=O)c1ccc(Nc2nc(NC3(c4ccc(Cl)cc4)CC3)nc(OCC(F)(F)F)n2)cc1 [Compound 1151] | 1.62 nM

same assay, conditions: Hepatitis C virus, Huh-7, 48 h, read-out: Activity (EC50 class), HCV pseudoparticle infection of Huh7 cells, luciferase 2 days after infection; EC50 expressed as class A/B

SMILES | EC50
C[C@@H]1[C@H]2C[C@H](C[C@H]1NC(=O)C(=O)NC[C@H](NC(=O)c1ccc(Nc3nc(NC4(c5ccc(Cl)cc5)CC4)nc(OCC(F)(F)F)n3)cc1)C(=O)O)C2(C)C [Compound 1105] | 0.01 to 10 nM
CCC(CC)NC(=O)C(=O)NCCC(NC(=O)c1ccc(Nc2nc(NC3(c4ccc(Cl)cc4)CC3)nc(OCC(F)(F)F)n2)cc1)C(=O)OC (stereo not shown) [Compound 1106] | 0.01 to 10 nM
COC(=O)[C@H](CCNC(=O)C(=O)NC1CC(C)CC(C)(C)C1)NC(=O)c1ccc(Nc2nc(NC3(c4ccc(Cl)cc4)CC3)nc(OCC(F)(F)F)n2)cc1 (stereo partly shown) [Compound 1107] | 0.01 to 10 nM
COC(=O)[C@H](CCNC(=O)C(=O)NC1CCC(C(C)(C)C)CC1)NC(=O)c1ccc(Nc2nc(NC3(c4ccc(Cl)cc4)CC3)nc(OCC(F)(F)F)n2)cc1 (stereo partly shown) [Compound 1108] | 0.01 to 10 nM
COC(=O)[C@H](CCNC(=O)C(=O)NC1CCC(C)CC1)NC(=O)c1ccc(Nc2nc(NC3(c4ccc(Cl)cc4)CC3)nc(OCC(F)(F)F)n2)cc1 (stereo partly shown) [Compound 1109] | 0.01 to 10 nM
COC(=O)[C@H](CCNC(=O)C(=O)N[C@H]1C[C@@H]2C[C@@H]([C@@H]1C)C2(C)C)NC(=O)c1ccc(Nc2nc(NC3(c4ccc(Cl)cc4)CC3)nc(OCC(F)(F)F)n2)cc1 [Compound 1110] | 0.01 to 10 nM
CC(C)(C)OC(=O)NC1CCCC(NC(=O)C(=O)NCC[C@H](NC(=O)c2ccc(Nc3nc(NC4(c5ccc(Cl)cc5)CC4)nc(OCC(F)(F)F)n3)cc2)C(=O)O)C1 (stereo partly shown) [Compound 1111] | 0.01 to 10 nM
O=C(NCC[C@H](NC(=O)c1ccc(Nc2nc(NC3(c4ccc(Cl)cc4)CC3)nc(OCC(F)(F)F)n2)cc1)C(=O)O)C(=O)NC1CCCC(O)C1 (stereo partly shown) [Compound 1112] | 0.01 to 10 nM
O=C(NCC[C@H](NC(=O)c1ccc(Nc2nc(NC3(c4ccc(Cl)cc4)CC3)nc(OCC(F)(F)F)n2)cc1)C(=O)O)C(=O)NC1CCCCC1O (stereo partly shown) [Compound 1113] | 0.01 to 10 nM
CC1(C)CC(NC(=O)C(=O)NCC[C@H](NC(=O)c2ccc(Nc3nc(NC4(c5ccc(Cl)cc5)CC4)nc(OCC(F)(F)F)n3)cc2)C(=O)O)CC(C)(C)C1 [Compound 1115] | 0.01 to 10 nM
O=C1CC(NC(=O)C(=O)NCC[C@H](NC(=O)c2ccc(Nc3nc(NC4(c5ccc(Cl)cc5)CC4)nc(OCC(F)(F)F)n3)cc2)C(=O)O)CCN1 (stereo partly shown) [Compound 1116] | 10 to 1000 nM
C[C@]12C3C1[C@H]3C[C@@H]2NC(=O)C(=O)NCC[C@H](NC(=O)c1ccc(Nc2nc(NC3(c4ccc(Cl)cc4)CC3)nc(OCC(F)(F)F)n2)cc1)C(=O)O (stereo partly shown) [Compound 1117] | 0.01 to 10 nM
O=C(NCC[C@H](NC(=O)c1ccc(Nc2nc(NC3(c4ccc(Cl)cc4)CC3)nc(OCC(F)(F)F)n2)cc1)C(=O)O)C(=O)NC1CCC(O)CC1 (stereo partly shown) [Compound 1118] | 0.01 to 10 nM
CC(C)(C)OC(=O)N1CCC(NC(=O)C(=O)NCC[C@H](NC(=O)c2ccc(Nc3nc(NC4(c5ccc(Cl)cc5)CC4)nc(OCC(F)(F)F)n3)cc2)C(=O)O)CC1 [Compound 1119] | 0.01 to 10 nM
O=C(NCC[C@H](NC(=O)c1ccc(Nc2nc(NC3(c4ccc(Cl)cc4)CC3)nc(OCC(F)(F)F)n2)cc1)C(=O)O)C(=O)NC1C[C@H]2CC[C@@H]1C2 (stereo partly shown) [Compound 1120] | 0.01 to 10 nM
CCC1CCC(NC(=O)C(=O)NCC[C@H](NC(=O)c2ccc(Nc3nc(NC4(c5ccc(Cl)cc5)CC4)nc(OCC(F)(F)F)n3)cc2)C(=O)O)CC1 (stereo partly shown) [Compound 1121] | 0.01 to 10 nM
O=C(NCC[C@H](NC(=O)c1ccc(Nc2nc(NC3(c4ccc(Cl)cc4)CC3)nc(OCC(F)(F)F)n2)cc1)C(=O)O)C(=O)NC1CCCCCC1 [Compound 1122] | 0.01 to 10 nM
C[C@H]1[C@@H](NC(=O)C(=O)NCC[C@H](NC(=O)c2ccc(Nc3nc(NC4(c5ccc(Cl)cc5)CC4)nc(OCC(F)(F)F)n3)cc2)C(=O)O)C[C@H]2C[C@@H]1C2(C)C [Compound 1123] | 0.01 to 10 nM
CC1CCCCC1NC(=O)C(=O)NCC[C@H](NC(=O)c1ccc(Nc2nc(NC3(c4ccc(Cl)cc4)CC3)nc(OCC(F)(F)F)n2)cc1)C(=O)O (stereo partly shown) [Compound 1124] | 0.01 to 10 nM
CC1CCCC(NC(=O)C(=O)NCC[C@H](NC(=O)c2ccc(Nc3nc(NC4(c5ccc(Cl)cc5)CC4)nc(OCC(F)(F)F)n3)cc2)C(=O)O)C1 (stereo partly shown) [Compound 1125] | 0.01 to 10 nM
CCC(CC)NC(=O)C(=O)NCC[C@H](NC(=O)c1ccc(Nc2nc(NC3(c4ccc(Cl)cc4)CC3)nc(OCC(F)(F)F)n2)cc1)C(=O)O [Compound 1126] | 0.01 to 10 nM
CC1CC(NC(=O)C(=O)NCC[C@H](NC(=O)c2ccc(Nc3nc(NC4(c5ccc(Cl)cc5)CC4)nc(OCC(F)(F)F)n3)cc2)C(=O)O)CC(C)(C)C1 (stereo partly shown) [Compound 1127] | 0.01 to 10 nM
CC(C)(C)C1CCC(NC(=O)C(=O)NCC[C@H](NC(=O)c2ccc(Nc3nc(NC4(c5ccc(Cl)cc5)CC4)nc(OCC(F)(F)F)n3)cc2)C(=O)O)CC1 (stereo partly shown) [Compound 1128] | 0.01 to 10 nM
CC1CCC(NC(=O)C(=O)NCC[C@H](NC(=O)c2ccc(Nc3nc(NC4(c5ccc(Cl)cc5)CC4)nc(OCC(F)(F)F)n3)cc2)C(=O)O)CC1 (stereo partly shown) [Compound 1129] | 0.01 to 10 nM

SMILES | EC50
C[C@H]1[C@H]2C[C@@H](C[C@H]1NC(=O)C(=O)NCC[C@H](NC(=O)c1ccc(Nc3nc(NC4(c5ccc(Cl)cc5)CC4)nc(OCC(F)(F)F)n3)cc1)C(=O)O)C2(C)C [Compound 1130] | 0.01 to 10 nM
COC(=O)[C@H](CNC(=O)C(=O)NCc1cccc(F)c1)NC(=O)c1ccc(Nc2nc(NC3(c4ccc(Cl)cc4)CC3)nc(OCC(F)(F)F)n2)cc1 [Compound 1131] | 0.01 to 10 nM
COC(=O)[C@H](CNC(=O)C(=O)NC1CCCCC1)NC(=O)c1ccc(Nc2nc(NC3(c4ccc(Cl)cc4)CC3)nc(OCC(F)(F)F)n2)cc1 [Compound 1132] | 0.01 to 10 nM
COC(=O)[C@H](CNC(=O)C(=O)NCc1ccc(F)cc1)NC(=O)c1ccc(Nc2nc(NC3(c4ccc(Cl)cc4)CC3)nc(OCC(F)(F)F)n2)cc1 [Compound 1133] | 0.01 to 10 nM
COC(=O)[C@H](CNC(=O)C(=O)NCc1ccc(F)cc1F)NC(=O)c1ccc(Nc2nc(NC3(c4ccc(Cl)cc4)CC3)nc(OCC(F)(F)F)n2)cc1 [Compound 1134] | 0.01 to 10 nM
COC(=O)[C@H](CNC(=O)C(=O)NCc1c(F)cccc1F)NC(=O)c1ccc(Nc2nc(NC3(c4ccc(Cl)cc4)CC3)nc(OCC(F)(F)F)n2)cc1 [Compound 1135] | 0.01 to 10 nM
COC(=O)[C@H](CNC(=O)C(=O)NCc1ccc(F)c(F)c1)NC(=O)c1ccc(Nc2nc(NC3(c4ccc(Cl)cc4)CC3)nc(OCC(F)(F)F)n2)cc1 [Compound 1136] | 0.01 to 10 nM
COC(=O)[C@H](CNC(=O)C(=O)NCc1ccc(OC)cc1OC)NC(=O)c1ccc(Nc2nc(NC3(c4ccc(Cl)cc4)CC3)nc(OCC(F)(F)F)n2)cc1 [Compound 1137] | 0.01 to 10 nM
COC(=O)[C@H](CNC(=O)C(=O)NCc1cc(F)cc(F)c1)NC(=O)c1ccc(Nc2nc(NC3(c4ccc(Cl)cc4)CC3)nc(OCC(F)(F)F)n2)cc1 [Compound 1138] | 0.01 to 10 nM
COC(=O)[C@H](CCNC(=O)C(=O)NCc1cccc(F)c1)NC(=O)c1ccc(Nc2nc(NC3(c4ccc(Cl)cc4)CC3)nc(OCC(F)(F)F)n2)cc1 [Compound 1139] | 0.01 to 10 nM
COC(=O)[C@H](CCNC(=O)C(=O)NC1CCCCC1)NC(=O)c1ccc(Nc2nc(NC3(c4ccc(Cl)cc4)CC3)nc(OCC(F)(F)F)n2)cc1 [Compound 1140] | 0.01 to 10 nM
COC(=O)[C@H](CCNC(=O)C(=O)NC1CCCCCC1)NC(=O)c1ccc(Nc2nc(NC3(c4ccc(Cl)cc4)CC3)nc(OCC(F)(F)F)n2)cc1 [Compound 1141] | 0.01 to 10 nM
COC(=O)[C@H](CCNC(=O)C(=O)NCc1ccccc1)NC(=O)c1ccc(Nc2nc(NC3(c4ccc(Cl)cc4)CC3)nc(OCC(F)(F)F)n2)cc1 [Compound 1142] | 0.01 to 10 nM
COC(=O)[C@H](CCNC(=O)C(=O)NCC1CCCCC1)NC(=O)c1ccc(Nc2nc(NC3(c4ccc(Cl)cc4)CC3)nc(OCC(F)(F)F)n2)cc1 [Compound 1143] | 0.01 to 10 nM
COC(=O)[C@H](CCNC(=O)C(=O)NCc1ccc(OC)c(OC)c1)NC(=O)c1ccc(Nc2nc(NC3(c4ccc(Cl)cc4)CC3)nc(OCC(F)(F)F)n2)cc1 [Compound 1144] | 0.01 to 10 nM
COC(=O)[C@H](CCNC(=O)C(=O)NCc1ccc(F)cc1)NC(=O)c1ccc(Nc2nc(NC3(c4ccc(Cl)cc4)CC3)nc(OCC(F)(F)F)n2)cc1 [Compound 1145] | 0.01 to 10 nM
COC(=O)[C@H](CCNC(=O)C(=O)NCc1ccc(OC)cc1)NC(=O)c1ccc(Nc2nc(NC3(c4ccc(Cl)cc4)CC3)nc(OCC(F)(F)F)n2)cc1 [Compound 1146] | 0.01 to 10 nM
COC(=O)[C@H](CCNC(=O)C(=O)NCc1ccc(OC)cc1OC)NC(=O)c1ccc(Nc2nc(NC3(c4ccc(Cl)cc4)CC3)nc(OCC(F)(F)F)n2)cc1 [Compound 1147] | 0.01 to 10 nM
COC(=O)[C@H](CNC(=O)C(=O)NCc1cccc(F)c1F)NC(=O)c1ccc(Nc2nc(NC3(c4ccc(Cl)cc4)CC3)nc(OCC(F)(F)F)n2)cc1 [Compound 1148] | 0.01 to 10 nM
COC(=O)[C@H](CNC(=O)C(=O)NCC1CCCCC1)NC(=O)c1ccc(Nc2nc(NC3(c4ccc(Cl)cc4)CC3)nc(OCC(F)(F)F)n2)cc1 [Compound 1149] | 0.01 to 10 nM
COC(=O)[C@H](CNC(=O)C(=O)NCc1ccccc1OC)NC(=O)c1ccc(Nc2nc(NC3(c4ccc(Cl)cc4)CC3)nc(OCC(F)(F)F)n2)cc1 [Compound 1150] | 0.01 to 10 nM
COC(=O)[C@H](CNC(=O)C(=O)NCc1cccc(OC)c1)NC(=O)c1ccc(Nc2nc(NC3(c4ccc(Cl)cc4)CC3)nc(OCC(F)(F)F)n2)cc1 [Compound 1151] | 0.01 to 10 nM
COC(=O)[C@H](CNC(=O)C(=O)NCc1ccc(OC)c(OC)c1)NC(=O)c1ccc(Nc2nc(NC3(c4ccc(Cl)cc4)CC3)nc(OCC(F)(F)F)n2)cc1 [Compound 1152] | 0.01 to 10 nM
COC(=O)[C@H](CNC(=O)C(=O)NCc1ccc(OC)cc1)NC(=O)c1ccc(Nc2nc(NC3(c4ccc(Cl)cc4)CC3)nc(OCC(F)(F)F)n2)cc1 [Compound 1153] | 0.01 to 10 nM
